From the OPERA property sets (Mansouri et al. 2018) come the findings set out here.

≈ marks a conversion by molar mass, not a printed value.

The conditions of one data set: 20 °C.
With `CF`, the solubility (as a rule, how much of the substance goes into solution per volume) amounted to 667 mM (≈ 22700 µg/mL). Turning to `CI`, the solubility came to 97.2 mM (≈ 13800 µg/mL).

The data set is the same for the next values; noted with them: 21 °C.
Regarding `CC(F)F`, the solubility stood at 48.5 mM (≈ 3200 µg/mL).

The same data set, now with this note: 25 °C.
In turn, `BrC=CBr` gave a solubility of 34.7 mM (≈ 6440 µg/mL).

For the compound `CBr`, the solubility is 160 mM (≈ 15200 µg/mL). On the same count and under the same terms, the same measure for `FC(F)(F)F`: 0.214 mM (≈ 18.8 µg/mL); for `FC(Cl)Cl`: 183 mM (≈ 18800 µg/mL).

As for `FC(F)Cl`, the solubility was determined as 32 mM (≈ 2770 µg/mL).

The compound `ClC(Cl)(Cl)Cl` came in with a solubility of 5.16 mM (≈ 793 µg/mL). On the same count and under the same terms, next, `FC(F)(F)Br`: 2.15 mM (≈ 320 µg/mL); `FC(F)(F)C(F)(F)Cl`: 0.382 mM (≈ 59 µg/mL).

In turn, `BrC(Br)Br` showed a solubility of 13.8 mM (≈ 3490 µg/mL). `Clc1ccccc1` registered a solubility of 4.42 mM (≈ 498 µg/mL). The same measure, in the same setting: next, `ClCCl`: 153 mM (≈ 13000 µg/mL). The same measure, in the same setting: the same measure for `FC(F)=C(F)F`: 1.58 mM (≈ 158 µg/mL). On the same count and under the same terms, the same measure for `C=C(F)F`: 197 mM (≈ 12600 µg/mL); for `CC(Cl)CCl` (stereo not drawn): 24.8 mM (≈ 2800 µg/mL). The compound `FC(F)F` had a solubility of 58.4 mM (≈ 4090 µg/mL).
